Test results from US7691420B2, “Compositions for the treatment and prevention of diabetes mellitus” (priority 2003, dated 2010).
“Also recorded” adds a separate entry of the source. Marks after values point to notes of the source that are not given here.

Tests used:
[1] = test system: C3H10T1/2; experiment: Adipocyte differentiation of C3H10T1/2 cells, oil red O staining; assay type: cell-based; conditions: for Optical Density: extracted oil red O stain after 11-day treatment, insulin 100 nM
Source text: After the 11-day treatment, the cells were stained with oil red O. This was followed by extraction of the stain for concentration determination.

[2] = test system: C57BLKS/J db/db mice; experiment: Body weight, adipose tissue weight and food intake in the 4-week db/db mouse study; assay type: in vivo; conditions: for Total adipose tissue weight / Body weight: 4 weeks feed-ad-mix, 1% EGCG and/or 0.038% rosiglitazone in diet, group means; for Total adipose tissue weight: by NMR; for Body weight: * vs control, # vs rosiglitazone (P<0.05)
Procedure: (§1) This model of late type 2 diabetes with severe hyperglycemia and obesity is widely used to determine the efficacy of anti-diabetic and anti-obesity compounds.
(§2) Male db/db mice were obtained from Jackson Laboratory (Bar Harbor, Me., USA). Adult mice aged 8 weeks were used in the experiment. Mice were housed individually in plastic cages with bedding and allowed free access to standard rodent food and tap water. The animal rooms were controlled for temperature (24° C.), humidity (55%), and light (12-h light-dark cycle). The animals were randomized into four groups. […] Body weight and food intake were determined over the course of the study. Total adipose tissue weight was determined by NMR. After four weeks of treatment an oral glucose tolerance test was carried out after an overnight fasting period. The blood glucose levels were measured before (fasted state glucose levels) application of an oral glucose load (1 g/kg body weight) and after 15, 30, 45, 60, 90, 120, 150 and 180 minutes. Area under the curve (AUC) was calculated from the resulting blood glucose curves and served as an indicator of glucose tolerance. At the end of the study, fed state levels of glucose, triglycerides and free fatty acids were determined in plasma. All data are expressed as means for animals in each group.

[3] = test system: C57BLKS/J db/db mice; experiment: Oral glucose tolerance test and fasted state glucose in db/db mice after 4 weeks; assay type: in vivo; conditions: for Fasted state glucose: blood, overnight fasting, before glucose load
Procedure: as §1, §2

[4] = test system: C57BLKS/J db/db mice; experiment: Fed state plasma glucose, triglycerides and free fatty acids in db/db mice at end of study; assay type: in vivo; conditions: 4 weeks
Procedure: as §1, §2

[5] = 1% EGCG and/or 0.038% rosiglitazone in diet
[6] = fed state plasma, 1% EGCG and/or 0.038% rosiglitazone in diet

## (−)-epigallocatechin gallate [EGCG]
[1]; C3H10T1/2 cells, 11-day treatment, oil Red O staining
  Adipocyte differentiation (result in words): blocked TZD-induced adipocyte differentiation; also recorded: blocked ligustilide-induced adipocyte differentiation
[2]
  Total adipose tissue weight: 20.9*# g
  Body weight: 38.8*# g
[2]; 4 weeks, compared to control mice
  Body weight and adipose tissue weight (result in words): moderately decreased
[3]; [5]
  Fasted state glucose: 132.1* mg/dl
[3]; 1% EGCG and/or 0.038% rosiglitazone in diet, oral glucose load 1 g/kg, blood glucose curve 0-180 minutes
  AUC: 38353.5*
[3]; AUC of oral glucose tolerance test
  Glucose tolerance (result in words): significantly improved
[3]; compared to control mice
  Fasted state glucose levels (result in words): significantly reduced
[4]
  Fed state plasma levels of glucose, triglycerides, and free fatty acids (result in words): significantly reduced
[4]; [6]
  Glucose: 33.5*# mmol/l
  Triglycerides: 1.47* mmol/l

## CN(CCOc1ccc(CC2SC(=O)NC2=O)cc1)c1ccccn1 (stereo not shown) [Rosiglitazone, rosiglitazone, reference compound]
[2]
  Total adipose tissue weight: 29.0* g
  Body weight: 50.0* g
[3]; [5]
  Fasted state glucose: 98.0* mg/dl
[4]; [6]
  Free fatty acids: 25.2* mmol/l
  Glucose: 22.1* mmol/l
  Triglycerides: 1.01* mmol/l

## Insulin: insulin, 100 nM, used alone as comparison in the adipocyte differentiation test [reference compound]
[1]; Table 1, rosiglitazone 1 × 10^−5 M, pioglitazone 2.5 × 10^−5 M, EGCG 5 × 10^−5 M
  Optical Density: 0.21 ± 0.02
[1]; Table 2, ligustilide 50 × 10^−5 M, no EGCG
  Optical Density: 0.14 ± 0.01
